# Marks after values point to notes of the source that are not given here.
# How the values were obtained:
# Botrytis cinerea = experiment: Example A: in vivo preventive test on Botrytis cinerea (grey mould); conditions: gherkin plants, preventive spray, evaluated 4 to 5 days after inoculation
# Method: (§1) The young plants of gherkin are treated by spraying the active ingredient prepared as described above. Control plants are treated only with an aqueous solution of acetone/Dimethyl sulfoxide/Tween®. After 24 hours, the plants are contaminated by spraying the leaves with an aqueous suspension of Botrytis cinerea spores.
# Puccinia recondita = experiment: Example B: in vivo preventive test on Puccinia recondita (brown rust on wheat); conditions: wheat plants, preventive spray, evaluated 11 days after inoculation
# Method: as §1, with “wheat” for “gherkin”, “Puccinia recondita” for “Botrytis cinerea”
# Pyrenophora teres = experiment: Example C: in vivo preventive test on Pyrenophora teres (net blotch on barley); conditions: barley plants, preventive spray, evaluated 14 days after inoculation
# Method: as §1, with “barley” for “gherkin”, “Pyrenophora teres” for “Botrytis cinerea”
# Septoria tritici = experiment: Example D: in vivo preventive test on Septoria tritici (leaf spot on wheat); conditions: wheat plants, preventive spray, evaluated 24 days after inoculation
# Method: as §1, with “wheat” for “gherkin”, “Septoria tritici” for “Botrytis cinerea”
# Sphaerotheca fuliginea = experiment: Example E: in vivo preventive test on Sphaerotheca fuliginea (powdery mildew on cucurbits); conditions: gherkin plants, preventive spray, evaluated 15 days after inoculation
# Method: as §1, with “Sphaerotheca fuliginea” for “Botrytis cinerea”
# Uromyces appendiculatus = experiment: Example F: in vivo preventive test on Uromyces appendiculatus (bean rust); conditions: bean plants, preventive spray, evaluated 11 days after inoculation
# Method: as §1, with “bean” for “gherkin”, “Uromyces appendiculatus” for “Botrytis cinerea”
# [1] = test system: Blumeria graminis f. sp. hordei; experiment: Example G: Blumeria test (barley)/preventive; format: in vivo; conditions: 500 ppm of active ingredient, preventive, evaluated 7 days after inoculation
# Method: (§2) Solvent: 49 parts by weight of N,N-dimethylacetamide Emulsifier: 1 part by weight of alkylaryl polyglycol ether To produce a suitable preparation of active compound, 1 part by weight of active compound or active compound combination is mixed with the stated amounts of solvent and emulsifier, and the concentrate is diluted with water to the desired concentration. To test for preventive activity, young plants are sprayed with the preparation of active compound or active compound combination at the stated rate of application. After the spray coating has been dried, the plants are dusted with spores of Blumeria graminis f. sp. hordei.
# Fusarium culmorum = experiment: Example H: Fusarium culmorum-test (wheat)/curative; format: in vivo; conditions: 500 ppm of active ingredient, curative, evaluated 5 days after inoculation
# Method: (§3) Solvent: 49 parts by weight of N,N-dimethylacetamide
# (§4) Emulsifier: 1 part by weight of alkylaryl polyglycol ether
# (§5) To produce a suitable preparation of active compound, 1 part by weight of active compound or active compound combination is mixed with the stated amounts of solvent and emulsifier, and the concentrate is diluted with water to the desired concentration.
# To test for curative activity, young plants are slightly injured by using a sandblast and afterwards they are sprayed with a conidia suspension of Fusarium culmorum and placed for 24 hours in a greenhouse under a translucent incubation cabinet at a temperature of approximately 22° C. and a relative atmospheric humidity of approximately 100% and are subsequently sprayed with the preparation of active compound at the stated rate of application.
# After the spray coating has been dried, the plants remain in the greenhouse under translucent incubation cloches at a temperature of approximately 22° C. and a relative atmospheric humidity of approximately 100%.
# (§6) The test is evaluated 5 days after the inoculation. 0% means an efficacy which corresponds to that of the untreated control, while an efficacy of 100% means that no disease is observed.
# Fusarium graminearum = format: in vivo; conditions: 500 ppm of active ingredient; barley, preventive; evaluated 5 days after inoculation
# [2] = test system: Fusarium nivale (var. majus); experiment: Example J: Fusarium nivale (var. majus)-test (wheat)/preventive; format: in vivo; conditions: 500 ppm of active ingredient, preventive, evaluated 5 days after inoculation
# Method: as §3, §4, §5
# To test for preventive activity, young plants are sprayed with the preparation of active compound or active compound combination at the stated rate of application.
# After the spray coating has been dried, the plants are slightly injured by using a sandblast and afterwards they are sprayed with a conidia suspension of Fusarium nivale (var. majus).
# The plants are placed in the greenhouse under a translucent incubation cabinet at a temperature of approximately 10° C. and a relative atmospheric humidity of approximately 100%.
# as §6
# Leptosphaeria nodorum = experiment: Example K: Leptosphaeria nodorum test (wheat)/preventive; format: in vivo; conditions: 500 ppm of active ingredient, preventive, evaluated 8 days after inoculation
# Method: as §2, with “sprayed” for “dusted”, “a spore suspension” for “spores”, “Leptosphaeria nodorum.” for “Blumeria graminis f. sp. hordei.”
# Phakopsora pachyrhizi = experiment: Example L: Phakopsora test (soybeans)/preventive; format: in vivo; conditions: preventive, evaluated 7 days after inoculation
# Venturia inaequalis = experiment: Example O: Venturia test (apples)/preventive; format: in vivo; conditions: 100 ppm of active ingredient, preventive, evaluated 10 days after inoculation
# Method: Solvent: 24.5 parts by weight of acetone • 24.5 parts by weight of dimethylacetamide Emulsifier: 1 part by weight of alkylaryl polyglycol ether To produce a suitable preparation of active compound, 1 part by weight of active compound is mixed with the stated amounts of solvent and emulsifier, and the concentrate is diluted with water to the desired concentration. To test for preventive activity, young plants are sprayed with the preparation of active compound at the stated rate of application.
# [3] = pH 2.7
# Pyricularia oryzae = format: in vivo; conditions: 500 ppm of active ingredient; rice, preventive; evaluated 8 days after inoculation
SMILES,Eff. % (Botrytis cinerea; 500 ppm of active ingredient),Eff. % (Puccinia recondita; 500 ppm of active ingredient),Eff. % (Pyrenophora teres; 500 ppm of active ingredient),Eff. % (Septoria tritici; 500 ppm of active ingredient),Eff. % (Sphaerotheca fuliginea; 500 ppm of active ingredient),Eff. % (Uromyces appendiculatus; 500 ppm of active ingredient),Eff. % [1],Eff. % (Fusarium culmorum),Eff. % (Fusarium graminearum),Eff. % [2],Eff. % (Leptosphaeria nodorum),Eff. % (Phakopsora pachyrhizi; 100 ppm of active ingredient),Eff. % (Venturia inaequalis),LogP [3],Eff. % (Pyricularia oryzae),Eff. % (Botrytis cinerea; 100 ppm of active ingredient),Eff. % (Puccinia recondita; 100 ppm of active ingredient),Eff. % (Pyrenophora teres; 100 ppm of active ingredient),Eff. % (Septoria tritici; 100 ppm of active ingredient),Eff. % (Sphaerotheca fuliginea; 100 ppm of active ingredient),further results
OC(Cc1c(Cl)cncc1Cl)(Cn1cncn1)C1(F)CC1 (racemic) [Example I-62],100%,98%,100%,100%,100%,100%,100%,83%,100%,100%,100%,99%,100%,1.86^[a],–,–,–,–,–,–,–
OC(CCc1ccc(Cl)cc1)(Cc1ccncc1Cl)Cn1cncn1 (racemic) [Example I-69],–,98%,93%,100%,100%,100%,100%,–,71%,–,89%,91%,100%,2.40^[a],–,–,–,–,–,–,–
CC(C)(F)C(O)(Cc1ccncc1Cl)Cn1cncn1 (racemic) [Example I-76],100%,100%,79%,100%,100%,100%,100%,–,86%,100%,–,100%,74%,1.20^[a],71%,–,–,–,–,–,–
OC(Cc1ccnc(Cl)c1Cl)(Cn1cncn1)C1(Cl)CC1 (racemic) [Example I-82],100%,98%,97%,100%,100%,100%,100%,–,100%,100%,100%,100%,95%,2.39^[a],100%,–,–,–,–,–,–
OC(Cc1ccncc1F)(Cn1cncn1)C1(F)CC1 (centres unmarked) [Example I-19],–,–,–,–,–,–,100%,100%,100%,100%,100%,–,–,0.91^[a],100%,100%,88%,75%,75%,100%,Eff. % (Uromyces appendiculatus; 100 ppm of active ingredient): 98%; Eff. % (Phakopsora pachyrhizi; 10 ppm of active ingredient): 96%
OC(Cc1cccnc1Cl)(Cn1cncn1)C1(F)CC1 (centres unmarked) [Example I-25],–,–,–,–,–,–,100%,100%,100%,100%,100%,99%,89%,1.42^[a],–,99%,100%,97%,100%,100%,Eff. % (Uromyces appendiculatus; 100 ppm of active ingredient): 100%
